Experimental findings from ChEMBL document CHEMBL5291721, “A preclinical secondary pharmacology resource illuminates target-adverse drug reaction associations of marketed drugs” (Nat Commun, 2023) are described below.

Bounds are passed on as bounds.

For orientation: AC50 means the midpoint of the concentration-response curve, whichever way the signal moves.

Among the targets are D(3) dopamine receptor (Homo sapiens, UniProt P35462); Mu-type opioid receptor (Homo sapiens, UniProt P35372); Melanocortin receptor 4 (Homo sapiens, UniProt P32245).
The target of experiment [1] is T1, Histamine H2 receptor (Homo sapiens, UniProt P25021). The format is functional, cell-based.
T1 sequence (P25021 whole entry): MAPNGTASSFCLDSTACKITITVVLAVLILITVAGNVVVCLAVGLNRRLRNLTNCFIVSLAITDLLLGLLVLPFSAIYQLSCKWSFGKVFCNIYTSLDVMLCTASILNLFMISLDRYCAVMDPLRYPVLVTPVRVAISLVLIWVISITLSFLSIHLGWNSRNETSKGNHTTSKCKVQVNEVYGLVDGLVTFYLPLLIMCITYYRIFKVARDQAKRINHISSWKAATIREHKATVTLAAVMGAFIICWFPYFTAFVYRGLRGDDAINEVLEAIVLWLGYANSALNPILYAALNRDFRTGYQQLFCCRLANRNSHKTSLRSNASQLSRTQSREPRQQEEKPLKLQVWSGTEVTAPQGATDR
The target of experiment [2] is T2, Cannabinoid receptor 1 (Homo sapiens, UniProt P21554).
T2 sequence (P21554 whole entry): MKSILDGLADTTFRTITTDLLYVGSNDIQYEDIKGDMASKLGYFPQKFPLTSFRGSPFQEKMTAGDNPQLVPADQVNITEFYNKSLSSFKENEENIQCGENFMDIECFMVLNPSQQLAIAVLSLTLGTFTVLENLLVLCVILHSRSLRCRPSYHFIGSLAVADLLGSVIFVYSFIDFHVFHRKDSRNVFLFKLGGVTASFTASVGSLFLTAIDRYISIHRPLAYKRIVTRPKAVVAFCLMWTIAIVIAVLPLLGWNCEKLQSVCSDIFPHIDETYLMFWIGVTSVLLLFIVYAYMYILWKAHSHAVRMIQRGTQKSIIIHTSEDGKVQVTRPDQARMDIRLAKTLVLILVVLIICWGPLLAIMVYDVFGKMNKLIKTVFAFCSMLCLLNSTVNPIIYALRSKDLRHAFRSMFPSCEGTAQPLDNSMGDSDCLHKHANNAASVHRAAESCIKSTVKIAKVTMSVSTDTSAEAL
For experiment [3], the target named is Gamma-aminobutyric acid receptor subunit alpha-1 (Rattus norvegicus, UniProt P62813). The format is functional.
Chain of Gamma-aminobutyric acid receptor subunit alpha-1 (P62813 whole entry): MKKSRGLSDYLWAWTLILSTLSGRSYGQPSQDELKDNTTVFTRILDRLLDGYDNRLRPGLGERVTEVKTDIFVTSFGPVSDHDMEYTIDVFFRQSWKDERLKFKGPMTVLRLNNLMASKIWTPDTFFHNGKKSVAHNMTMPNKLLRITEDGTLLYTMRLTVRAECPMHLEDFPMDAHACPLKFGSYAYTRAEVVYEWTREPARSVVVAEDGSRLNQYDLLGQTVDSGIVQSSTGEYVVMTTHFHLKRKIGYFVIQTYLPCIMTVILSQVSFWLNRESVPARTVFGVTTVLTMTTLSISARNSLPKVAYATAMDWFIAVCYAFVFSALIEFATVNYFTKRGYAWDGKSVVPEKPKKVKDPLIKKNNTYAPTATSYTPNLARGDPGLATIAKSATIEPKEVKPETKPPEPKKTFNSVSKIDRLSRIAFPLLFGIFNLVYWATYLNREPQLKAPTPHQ
Experiment [4] deals with T3, Alpha-1A adrenergic receptor (Homo sapiens, UniProt P35348).
T3 sequence (P35348 whole entry): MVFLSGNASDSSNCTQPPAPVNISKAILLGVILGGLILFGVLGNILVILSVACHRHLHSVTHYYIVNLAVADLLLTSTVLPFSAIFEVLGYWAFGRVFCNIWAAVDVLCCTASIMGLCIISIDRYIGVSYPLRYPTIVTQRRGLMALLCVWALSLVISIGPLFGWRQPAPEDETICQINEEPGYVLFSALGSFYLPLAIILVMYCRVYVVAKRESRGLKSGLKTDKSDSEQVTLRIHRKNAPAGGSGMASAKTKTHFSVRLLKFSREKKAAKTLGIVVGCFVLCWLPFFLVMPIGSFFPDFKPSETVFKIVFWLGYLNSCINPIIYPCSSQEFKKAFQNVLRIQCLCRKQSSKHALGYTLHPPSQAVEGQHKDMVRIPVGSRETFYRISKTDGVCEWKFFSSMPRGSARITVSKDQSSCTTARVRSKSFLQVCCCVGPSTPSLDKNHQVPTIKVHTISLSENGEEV

For experiment [5], the target named is 5-hydroxytryptamine receptor 2A (Homo sapiens, UniProt P28223). It counts as functional, cell-based.
Chain of 5-hydroxytryptamine receptor 2A (P28223 whole entry): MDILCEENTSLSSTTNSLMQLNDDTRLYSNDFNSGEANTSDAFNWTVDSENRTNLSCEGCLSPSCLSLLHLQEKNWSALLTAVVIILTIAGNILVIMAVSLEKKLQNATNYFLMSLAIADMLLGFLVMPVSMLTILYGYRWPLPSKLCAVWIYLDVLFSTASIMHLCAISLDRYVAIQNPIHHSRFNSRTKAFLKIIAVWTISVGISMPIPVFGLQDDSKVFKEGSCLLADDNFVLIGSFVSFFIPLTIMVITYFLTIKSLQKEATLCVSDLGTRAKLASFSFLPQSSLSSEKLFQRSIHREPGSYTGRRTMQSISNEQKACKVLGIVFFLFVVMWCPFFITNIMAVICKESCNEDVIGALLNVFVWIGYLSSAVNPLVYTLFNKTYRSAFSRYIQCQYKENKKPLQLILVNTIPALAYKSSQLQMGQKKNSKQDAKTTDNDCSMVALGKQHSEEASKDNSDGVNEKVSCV
The target of experiment [6] is T4, Peroxisome proliferator-activated receptor gamma (Homo sapiens, UniProt P37231).
T4 sequence (P37231 whole entry): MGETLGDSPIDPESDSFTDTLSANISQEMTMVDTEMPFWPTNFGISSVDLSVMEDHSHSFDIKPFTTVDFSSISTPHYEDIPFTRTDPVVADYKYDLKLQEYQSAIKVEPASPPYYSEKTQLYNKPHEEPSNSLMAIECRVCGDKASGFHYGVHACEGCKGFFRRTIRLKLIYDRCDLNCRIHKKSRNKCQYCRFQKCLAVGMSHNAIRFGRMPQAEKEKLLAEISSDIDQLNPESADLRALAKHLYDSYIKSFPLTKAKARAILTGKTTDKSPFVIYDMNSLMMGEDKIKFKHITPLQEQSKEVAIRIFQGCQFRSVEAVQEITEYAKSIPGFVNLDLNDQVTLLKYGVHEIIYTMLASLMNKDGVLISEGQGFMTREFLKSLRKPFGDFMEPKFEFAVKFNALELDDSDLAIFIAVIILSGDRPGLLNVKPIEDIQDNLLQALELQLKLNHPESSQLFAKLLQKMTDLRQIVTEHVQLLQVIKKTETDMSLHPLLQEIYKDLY
The format is functional.

In experiment [7] the target is Sodium-dependent serotonin transporter (Homo sapiens, UniProt P31645).
Chain of Sodium-dependent serotonin transporter (P31645 whole entry): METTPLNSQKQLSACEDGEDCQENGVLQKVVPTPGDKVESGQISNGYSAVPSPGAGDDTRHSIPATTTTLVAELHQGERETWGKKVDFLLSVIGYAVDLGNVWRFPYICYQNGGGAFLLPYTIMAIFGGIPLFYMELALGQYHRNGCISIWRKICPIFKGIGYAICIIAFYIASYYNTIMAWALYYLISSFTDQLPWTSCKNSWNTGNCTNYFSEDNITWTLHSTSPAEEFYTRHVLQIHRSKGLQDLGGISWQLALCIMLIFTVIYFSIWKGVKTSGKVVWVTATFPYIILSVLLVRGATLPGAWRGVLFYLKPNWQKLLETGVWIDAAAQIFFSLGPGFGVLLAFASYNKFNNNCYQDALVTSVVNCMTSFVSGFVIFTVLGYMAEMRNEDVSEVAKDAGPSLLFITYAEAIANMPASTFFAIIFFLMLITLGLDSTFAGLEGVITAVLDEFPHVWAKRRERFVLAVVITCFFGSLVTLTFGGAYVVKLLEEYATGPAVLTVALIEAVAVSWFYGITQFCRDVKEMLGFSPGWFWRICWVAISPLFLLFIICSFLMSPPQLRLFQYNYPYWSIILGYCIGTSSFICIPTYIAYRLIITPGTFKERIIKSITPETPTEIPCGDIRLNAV
For the next experiment, the target named is T5, Androgen receptor (Rattus norvegicus, UniProt P15207).
T5 sequence (P15207 whole entry): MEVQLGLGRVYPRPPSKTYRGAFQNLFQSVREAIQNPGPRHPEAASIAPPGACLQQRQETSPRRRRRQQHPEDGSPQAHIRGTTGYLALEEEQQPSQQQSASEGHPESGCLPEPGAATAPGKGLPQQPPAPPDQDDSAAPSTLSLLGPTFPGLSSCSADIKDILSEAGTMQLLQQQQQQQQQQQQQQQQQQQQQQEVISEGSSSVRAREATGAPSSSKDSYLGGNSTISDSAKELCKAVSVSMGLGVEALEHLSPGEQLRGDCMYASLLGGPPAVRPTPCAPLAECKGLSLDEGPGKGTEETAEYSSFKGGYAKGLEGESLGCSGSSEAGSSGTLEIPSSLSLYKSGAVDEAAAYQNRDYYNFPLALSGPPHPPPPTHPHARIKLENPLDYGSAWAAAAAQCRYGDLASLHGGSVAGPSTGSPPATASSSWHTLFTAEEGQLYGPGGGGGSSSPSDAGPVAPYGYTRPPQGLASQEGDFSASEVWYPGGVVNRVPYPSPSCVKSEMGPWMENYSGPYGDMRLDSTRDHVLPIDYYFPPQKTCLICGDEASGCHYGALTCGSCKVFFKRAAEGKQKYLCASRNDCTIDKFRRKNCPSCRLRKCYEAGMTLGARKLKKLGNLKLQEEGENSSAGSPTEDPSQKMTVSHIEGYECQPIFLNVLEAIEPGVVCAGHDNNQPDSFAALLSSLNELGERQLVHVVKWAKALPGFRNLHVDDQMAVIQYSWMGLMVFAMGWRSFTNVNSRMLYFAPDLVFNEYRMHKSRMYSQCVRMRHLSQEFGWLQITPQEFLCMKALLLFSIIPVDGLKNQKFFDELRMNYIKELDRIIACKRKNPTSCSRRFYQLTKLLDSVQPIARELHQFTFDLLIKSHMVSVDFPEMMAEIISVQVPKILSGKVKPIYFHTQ
It counts as functional.

In experiment [8] the target is T6, Muscarinic acetylcholine receptor M2 (Homo sapiens, UniProt P08172).
T6 sequence (P08172 whole entry): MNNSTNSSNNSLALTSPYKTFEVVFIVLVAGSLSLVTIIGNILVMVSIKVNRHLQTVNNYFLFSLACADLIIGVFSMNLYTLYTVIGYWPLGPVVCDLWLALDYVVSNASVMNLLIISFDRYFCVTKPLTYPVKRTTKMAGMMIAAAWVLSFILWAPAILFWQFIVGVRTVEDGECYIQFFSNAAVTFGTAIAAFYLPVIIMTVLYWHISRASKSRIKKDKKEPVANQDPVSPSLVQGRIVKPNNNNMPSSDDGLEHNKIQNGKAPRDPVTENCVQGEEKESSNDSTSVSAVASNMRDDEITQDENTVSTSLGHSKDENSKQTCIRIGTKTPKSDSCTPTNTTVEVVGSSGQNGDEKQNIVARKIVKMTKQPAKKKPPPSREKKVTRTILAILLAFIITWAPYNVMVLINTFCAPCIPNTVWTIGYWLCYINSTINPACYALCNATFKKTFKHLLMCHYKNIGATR
The format is functional, cell-based.

Experiment [9] deals with T2, Cannabinoid receptor 1. The format is functional, cell-based.
Experiment [10] has as its target Beta-2 adrenergic receptor (Homo sapiens, UniProt P07550). It counts as functional, cell-based.
Experiment [11] addresses T1, Histamine H2 receptor.
Further: assay procedure not described here.

Chain of D(3) dopamine receptor (P35462 whole entry): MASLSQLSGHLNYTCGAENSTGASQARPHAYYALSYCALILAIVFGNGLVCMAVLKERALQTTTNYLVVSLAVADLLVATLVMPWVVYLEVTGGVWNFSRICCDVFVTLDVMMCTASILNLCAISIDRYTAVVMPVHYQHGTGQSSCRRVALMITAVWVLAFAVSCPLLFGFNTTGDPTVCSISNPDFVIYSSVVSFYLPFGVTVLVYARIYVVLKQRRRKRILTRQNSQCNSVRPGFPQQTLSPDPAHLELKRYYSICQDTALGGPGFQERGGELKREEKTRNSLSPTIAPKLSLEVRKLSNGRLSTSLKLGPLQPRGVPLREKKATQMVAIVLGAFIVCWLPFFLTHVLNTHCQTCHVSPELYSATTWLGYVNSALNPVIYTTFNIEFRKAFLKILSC
Chain of Melanocortin receptor 4 (P32245 whole entry): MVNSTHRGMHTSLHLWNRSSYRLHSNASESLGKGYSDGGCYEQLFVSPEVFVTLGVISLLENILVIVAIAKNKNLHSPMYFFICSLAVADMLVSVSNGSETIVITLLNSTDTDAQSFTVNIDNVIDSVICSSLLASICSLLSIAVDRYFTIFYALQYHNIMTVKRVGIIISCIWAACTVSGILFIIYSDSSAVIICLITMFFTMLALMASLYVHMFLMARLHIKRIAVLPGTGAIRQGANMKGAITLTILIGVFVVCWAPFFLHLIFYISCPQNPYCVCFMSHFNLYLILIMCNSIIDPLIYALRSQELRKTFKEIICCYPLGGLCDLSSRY
Chain of Beta-2 adrenergic receptor (P07550 whole entry): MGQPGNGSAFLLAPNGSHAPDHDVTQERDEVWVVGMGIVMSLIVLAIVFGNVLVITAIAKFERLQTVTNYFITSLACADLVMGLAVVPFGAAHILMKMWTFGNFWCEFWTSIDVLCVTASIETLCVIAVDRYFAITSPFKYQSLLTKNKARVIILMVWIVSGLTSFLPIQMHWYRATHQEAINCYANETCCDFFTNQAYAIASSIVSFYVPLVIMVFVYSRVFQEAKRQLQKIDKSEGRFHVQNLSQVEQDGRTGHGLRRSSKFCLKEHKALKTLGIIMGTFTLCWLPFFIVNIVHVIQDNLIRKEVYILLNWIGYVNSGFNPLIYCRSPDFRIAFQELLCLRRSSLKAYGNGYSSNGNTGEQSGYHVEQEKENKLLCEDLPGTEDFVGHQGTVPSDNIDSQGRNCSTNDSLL
Chain of Mu-type opioid receptor (P35372 whole entry): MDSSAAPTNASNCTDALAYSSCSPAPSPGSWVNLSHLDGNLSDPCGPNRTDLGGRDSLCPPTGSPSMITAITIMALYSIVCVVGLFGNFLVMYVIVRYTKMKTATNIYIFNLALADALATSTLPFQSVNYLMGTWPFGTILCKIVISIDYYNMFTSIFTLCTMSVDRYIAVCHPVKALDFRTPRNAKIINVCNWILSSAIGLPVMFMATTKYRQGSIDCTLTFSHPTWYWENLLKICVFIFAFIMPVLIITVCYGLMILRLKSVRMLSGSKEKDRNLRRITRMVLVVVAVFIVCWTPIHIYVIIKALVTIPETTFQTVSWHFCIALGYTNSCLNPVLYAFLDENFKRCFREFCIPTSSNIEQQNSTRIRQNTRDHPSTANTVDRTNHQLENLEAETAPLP

On to `CCN(CC)C(=O)C1CN2CCc3cc(OC)c(OC)cc3C2CC1OC(C)=O` (configuration not stated) [BENZQUINAMIDE], for which the AC50 was greater than 30 µM on Histamine H2 receptor [1]; 14.4 µM at D(3) dopamine receptor; greater than 30 µM on Mu-type opioid receptor; greater than 10 µM on Cannabinoid receptor 1 [2]; greater than 30 µM in experiment [3]; greater than 10 µM in [4]. Further, the AC50 in experiment [5] was greater than 30 µM; at Melanocortin receptor 4, greater than 10 µM; in experiment [6] it was greater than 30 µM; in experiment [7] it was greater than 30 µM; at Androgen receptor, greater than 30 µM; in [8] it was greater than 30 µM. Also, the AC50 (on Cannabinoid receptor 1 [9]; in experiment [10]) was greater than 30 µM each time.

As for `CCCCC1(CC)C(=O)NC(=O)NC1=O` [BUTETHAL], the AC50 (on Histamine H2 receptor [1]; at D(3) dopamine receptor; in [3]; in experiment [5]; in experiment [6]; in [7]) was greater than 30 µM each time. The AC50 (on Androgen receptor; in experiment [8]; at Cannabinoid receptor 1 [9]; in experiment [10]) was greater than 30 µM each time.

Consider `COc1cccc2c1C(=O)c1c(O)c3c(c(O)c1C2=O)C[C@@](O)(C(C)=O)C[C@@H]3O[C@H]1C[C@H](N)[C@H](O)[C@H](C)O1` [DAUNORUBICIN], for which the AC50 is greater than 30 µM on Histamine H2 receptor [1]; 17.9 µM on D(3) dopamine receptor; 24 µM at Mu-type opioid receptor; greater than 30 µM in experiment [3]; greater than 30 µM in experiment [6]; greater than 30 µM in experiment [10].

Take `Nc1nc2c(c(=O)[nH]1)N(C=O)C(CNc1ccc(C(=O)N[C@@H](CCC(=O)O)C(=O)O)cc1)CN2` (some centres not stated) [LEUCOVORIN]: the AC50 (on Histamine H2 receptor [1]; at D(3) dopamine receptor; in experiment [3]; in experiment [6]; at Androgen receptor; in [8]) was greater than 30 µM throughout. The AC50 (on Cannabinoid receptor 1 [9]; in [10]) was greater than 30 µM in each case.

With `CCCC[C@H](C)C[C@H](O)/C=C/[C@H]1[C@H](O)CC(=O)[C@@H]1CCCC/C=C/C(=O)O` [LIMAPROST], the AC50 (on Histamine H2 receptor [1]; on D(3) dopamine receptor; in experiment [5]; in experiment [6]; in experiment [7]; at Androgen receptor) was greater than 30 µM in each case. Moreover, the half-maximal activity concentration (AC50) (in [8]; on Cannabinoid receptor 1 [9]; in experiment [10]) was greater than 30 µM throughout.

Turning to `CC#CCn1c(N2CCC[C@@H](N)C2)nc2c1c(=O)n(Cc1nc(C)c3ccccc3n1)c(=O)n2C` [LINAGLIPTIN], the AC50 was greater than 10 µM on Histamine H2 receptor [1]; greater than 30 µM at D(3) dopamine receptor; 12.3 µM on Histamine H2 receptor [11]; greater than 30 µM at Mu-type opioid receptor; greater than 10 µM on Cannabinoid receptor 1 [2]; greater than 10 µM in experiment [3]. Moreover, the AC50 is 41.8 µM on Melanocortin receptor 4 and greater than 30 µM in experiment [7].

As for `Cc1ccc(NC(=O)C2(c3ccc4c(c3)OC(F)(F)O4)CC2)nc1-c1cccc(C(=O)O)c1` [LUMACAFTOR], the AC50 (at Histamine H2 receptor [1]; at D(3) dopamine receptor; in experiment [3]; in [5]; in [6]; in experiment [7]) was greater than 30 µM throughout. Moreover, the AC50 (at Androgen receptor; in [8]; at Cannabinoid receptor 1 [9]; in experiment [10]) was greater than 30 µM throughout.

Turning to `CCOC(=O)Nc1ccc2c(c1)N(C(=O)CCN1CCOCC1)c1ccccc1S2` [MORICIZINE], the AC50 (at Histamine H2 receptor [1]; at D(3) dopamine receptor; in experiment [3]; in [5]; in experiment [6]; in [7]) was greater than 30 µM each time. Further, the AC50 (at Androgen receptor; in experiment [8]; on Cannabinoid receptor 1 [9]; in experiment [10]) was greater than 30 µM each time.

Turning to `CC(CCc1ccccc1)NC(C)C(O)c1ccc(O)cc1` (configuration not stated) [NYLIDRIN], the concentration at half-maximal activity (AC50) on Histamine H2 receptor [1] was greater than 10 µM; at D(3) dopamine receptor, 1.3 µM; on Histamine H2 receptor [11], greater than 10 µM; at Mu-type opioid receptor, 9.9 µM; on Cannabinoid receptor 1 [2], greater than 10 µM; in [3], greater than 10 µM. The AC50 in [5] was greater than 30 µM; at Melanocortin receptor 4 it was greater than 30 µM; in [7] it was greater than 10 µM; in experiment [8] it was greater than 10 µM; at Cannabinoid receptor 1 [9] it was greater than 30 µM; in [10] it was 0.082 µM.

Turning to `Cc1ccc(=O)n(-c2ccccc2)c1` [PIRFENIDONE], the AC50 is greater than 30 µM on Histamine H2 receptor [1]; greater than 30 µM at D(3) dopamine receptor; greater than 30 µM at Mu-type opioid receptor; greater than 30 µM in [3]; greater than 10 µM in experiment [4]; greater than 30 µM in experiment [5]. Further, the AC50 (in experiment [6]; in experiment [7]; in [8]; at Cannabinoid receptor 1 [9]; in experiment [10]) was greater than 30 µM each time.

Consider `CC(C)CC(N(C)C)C1(c2ccc(Cl)cc2)CCC1` (configuration not stated) [SIBUTRAMINE], for which the AC50 was greater than 10 µM on Histamine H2 receptor [1]; greater than 10 µM at D(3) dopamine receptor; greater than 10 µM at Histamine H2 receptor [11]; greater than 30 µM on Mu-type opioid receptor; greater than 10 µM on Cannabinoid receptor 1 [2]; greater than 10 µM in [3]. The AC50 (on Melanocortin receptor 4; in experiment [8]; on Cannabinoid receptor 1 [9]) was greater than 30 µM each time.

Consider `N#C[C@@H]1CCCN1C(=O)CNC12CC3CC(CC(O)(C3)C1)C2` [VILDAGLIPTIN], for which the AC50 at Histamine H2 receptor [1] was greater than 30 µM; on D(3) dopamine receptor it was greater than 30 µM; at Histamine H2 receptor [11], greater than 10 µM; on Mu-type opioid receptor it was greater than 10 µM; on Cannabinoid receptor 1 [2] it was greater than 30 µM; in experiment [3], greater than 30 µM. In addition, the AC50 (in [5]; on Melanocortin receptor 4; in [7]; in experiment [8]) was greater than 30 µM in each case.
